Paper PMC3865603 (Cancer chemotherapy and pharmacology, 2011)

How the values were obtained:
[1] = Plasma pharmacokinetics, non-compartmental; assay type: in vivo, human
tubulin in PBMCs = experiment: Microtubule bundle formation; assay type: in vivo, human; conditions: for mean percentage of MBF: RP2D
QTcB interval = experiment: 12-lead ECG, QTcB interval; assay type: in vivo, human; conditions: baseline or pre- vs post-infusion ECGs, cycles 1 and 2
[2] = system: paclitaxel-resistant xenografts; conditions: cited from earlier work
[3] = mice; cited from earlier work
CYP3A4/5 = conditions: in vitro; cited from earlier work
[4] = KOS-1584 0.8 mg/m^2, 3 h infusion, cycle 1, N=1
[5] = KOS-1584 1.5 mg/m^2, 3 h infusion, cycle 1, N=4
[6] = KOS-1584 2.5 mg/m^2, 3 h infusion, cycle 1, N=4
[7] = KOS-1584 3.7 mg/m^2, 3 h infusion, cycle 1, N=3
[8] = KOS-1584 5.0 mg/m^2, 3 h infusion, cycle 1, N=4
[9] = KOS-1584 6.5 mg/m^2, 3 h infusion, cycle 1, N=6
[10] = KOS-1584 8.5 mg/m^2, 3 h infusion, cycle 1, N=3
[11] = KOS-1584 11.3 mg/m^2, 3 h infusion, cycle 1, N=4
[12] = KOS-1584 15.0 mg/m^2, 3 h infusion, cycle 1, N=4
[13] = KOS-1584 20.0 mg/m^2, 3 h infusion, cycle 1, N=5
[14] = KOS-1584 27 mg/m^2, 3 h infusion, cycle 1, N=4
[15] = KOS-1584 36 mg/m^2, 3 h infusion, cycle 1, N=16
[16] = KOS-1584 42 mg/m^2, 3 h infusion, cycle 1, N=6
[17] = KOS-1584 48 mg/m^2, 3 h infusion, cycle 1, N=2
[18] = all cohorts 0.8-48 mg/m^2, cycle 1

C/C1=C/C[C@@H](/C(C)=C/c2csc(C)n2)OC(=O)C[C@H](O)C(C)(C)C(=O)[C@H](C)[C@@H](O)[C@@H](C)/C=C/C1 [KOS-1584, (E)-9,10-didehydroepothilone D]
linearity of pharmacokinetics ([1]; 0.8-48 mg/m^2): linear pharmacokinetics
KOS-1584 AUC [1, 4]: 26.7 ng·h/mL
KOS-1584 CL [1, 4]: 30.0 L/h/m^2
KOS-1584 Cmax [1, 4]: 5.73 ng/mL
KOS-1584 Tmax [1, 4]: 3.0 ng/mL
KOS-1584 Vλ [1, 4]: 541 L/m^2
KOS-1584 t1/2 [1, 4]: 12.5 h
KOS-1584 AUC [1, 5]: 64.9 ± 16.3 ng·h/mL
KOS-1584 CL [1, 5]: 24.6 ± 7.63 L/h/m^2
KOS-1584 Cmax [1, 5]: 9.29 ± 4.16 ng/mL
KOS-1584 Tmax [1, 5]: 2.0 ± 1.2 ng/mL
KOS-1584 Vλ [1, 5]: 553 ± 146 L/m^2
KOS-1584 t1/2 [1, 5]: 16.0 ± 3.96 h
KOS-1584 AUC [1, 6]: 170 ± 2.21 ng·h/mL
KOS-1584 CL [1, 6]: 14.9 ± 1.95 L/h/m^2
KOS-1584 Cmax [1, 6]: 18.0 ± 5.24 ng/mL
KOS-1584 Tmax [1, 6]: 3.0 ± 0.02 ng/mL
KOS-1584 Vλ [1, 6]: 385 ± 109 L/m^2
KOS-1584 t1/2 [1, 6]: 18.2 ± 6.37 h
KOS-1584 AUC [1, 7]: 359 ± 40.7 ng·h/mL
KOS-1584 CL [1, 7]: 10.4 ± 1.27 L/h/m^2
KOS-1584 Cmax [1, 7]: 32.9 ± 10.8 ng/mL
KOS-1584 Tmax [1, 7]: 3.0 ± 0.06 ng/mL
KOS-1584 Vλ [1, 7]: 279 ± 60.1 L/m^2
KOS-1584 t1/2 [1, 7]: 18.7 ± 3.64 h
KOS-1584 AUC [1, 8]: 468 ± 140 ng·h/mL
KOS-1584 CL [1, 8]: 11.3 ± 2.84 L/h/m^2
KOS-1584 Cmax [1, 8]: 41.9 ± 13.4 ng/mL
KOS-1584 Tmax [1, 8]: 2.61 ± 0.74 ng/mL
KOS-1584 Vλ [1, 8]: 269 ± 104 L/m^2
KOS-1584 t1/2 [1, 8]: 16.0 ± 2.53 h
KOS-1584 AUC [1, 9]: 566 ± 159 ng·h/mL
KOS-1584 CL [1, 9]: 12.4 ± 2.91 L/h/m^2
KOS-1584 Cmax [1, 9]: 41.9 ± 11.3 ng/mL
KOS-1584 Tmax [1, 9]: 2.49 ± 0.76 ng/mL
KOS-1584 Vλ [1, 9]: 348 ± 79.9 L/m^2
KOS-1584 t1/2 [1, 9]: 19.9 ± 4.68 h
KOS-1584 AUC [1, 10]: 620 ± 317 ng·h/mL
KOS-1584 CL [1, 10]: 15.9 ± 6.34 L/h/m^2
KOS-1584 Cmax [1, 10]: 78.4 ± 28.8 ng/mL
KOS-1584 Tmax [1, 10]: 2.96 ± 0.03 ng/mL
KOS-1584 Vλ [1, 10]: 327 ± 190 L/m^2
KOS-1584 t1/2 [1, 10]: 13.7 ± 4.57 h
KOS-1584 AUC [1, 11]: 2,206 ± 994 ng h/mL
KOS-1584 CL [1, 11]: 6.28 ± 3.56 L/h/m^2
KOS-1584 Cmax [1, 11]: 140 ± 41.9 ng/mL
KOS-1584 Tmax [1, 11]: 2.60 ± 0.68 ng/mL
KOS-1584 Vλ [1, 11]: 267 ± 197 L/m^2
KOS-1584 t1/2 [1, 11]: 28.5 ± 6.77 h
KOS-1584 AUC [1, 12]: 2,204 ± 946 ng h/mL
KOS-1584 CL [1, 12]: 7.69 ± 2.89 L/h/m^2
KOS-1584 Cmax [1, 12]: 220 ± 84.7 ng/mL
KOS-1584 Tmax [1, 12]: 2.97 ± 0.03 ng/mL
KOS-1584 Vλ [1, 12]: 263 ± 113 L/m^2
KOS-1584 t1/2 [1, 12]: 23.5 ± 1.77 h
KOS-1584 AUC [1, 13]: 2,440 ± 945 ng h/mL
KOS-1584 CL [1, 13]: 9.28 ± 3.56 L/h/m^2
KOS-1584 Cmax [1, 13]: 284 ± 153 ng/mL
KOS-1584 Tmax [1, 13]: 2.38 ± 0.80 ng/mL
KOS-1584 Vλ [1, 13]: 288 ± 165 L/m^2
KOS-1584 t1/2 [1, 13]: 20.2 ± 8.15 h
KOS-1584 AUC [1, 14]: 3,190 ± 1,490 ng h/mL
KOS-1584 CL [1, 14]: 10.1 ± 5.00 L/h/m^2
KOS-1584 Cmax [1, 14]: 259 ± 110 ng/mL
KOS-1584 Tmax [1, 14]: 3.10 ± 0.27 ng/mL
KOS-1584 Vλ [1, 14]: 434 ± 339 L/m^2
KOS-1584 t1/2 [1, 14]: 27.8 ± 9.08 h
KOS-1584 AUC [1, 15]: 5,267 ± 3,190 ng h/mL
KOS-1584 CL [1, 15]: 8.98 ± 4.59 L/h/m^2
KOS-1584 Cmax [1, 15]: 701 ± 425 ng/mL
KOS-1584 Tmax [1, 15]: 2.67 ± 0.58 ng/mL
KOS-1584 Vλ [1, 15]: 329 ± 134 L/m^2
KOS-1584 t1/2 [1, 15]: 27.9 ± 10.6 h
KOS-1584 AUC [1, 16]: 7,355 ± 4,718 ng h/mL
KOS-1584 CL [1, 16]: 8.52 ± 5.43 L/h/m^2
KOS-1584 Cmax [1, 16]: 1,066 ± 513 ng/mL
KOS-1584 Tmax [1, 16]: 2.95 ± 0.04 ng/mL
KOS-1584 Vλ [1, 16]: 277 ± 165 L/m^2
KOS-1584 t1/2 [1, 16]: 24.1 ± 9.37 h
KOS-1584 AUC [1, 17]: 4,727 ± 167 ng h/mL
KOS-1584 CL [1, 17]: 10.1 ± 0.27 L/h/m^2
KOS-1584 Cmax [1, 17]: 769 ± 42.4 ng/mL
KOS-1584 Tmax [1, 17]: 2.92 ± 0.0 ng/mL
KOS-1584 Vλ [1, 17]: 349 ± 205 L/m^2
KOS-1584 t1/2 [1, 17]: 24.1 ± 14.7 h
mean overall clearance [1, 18]: 11 ± 6.17 L/h/m^2
mean overall half-life of KOS-1584 [1, 18]: 21.9 ± 8.75 h
mean overall volume of distribution [1, 18]: 327 ± 161 L/m^2
accumulation ([1]; every 3 weeks dosing, cycles 1 and 2): no accumulation
mean percentage of MBF (tubulin in PBMCs; 1 h after infusion): 50%
mean percentage of MBF (tubulin in PBMCs; 24 h after infusion): 26%
E0 of MBF (tubulin in PBMCs; sigmoidal maximum effect model): 3.69%
EC50 of plasma concentration for MBF (tubulin in PBMCs; sigmoidal maximum effect model): 0.0241 µg/mL
Emax of MBF (tubulin in PBMCs; sigmoidal maximum effect model): 52.7%
effect on QTcB interval (QTcB interval): did not show any effects
anti-tumor activity [2]: anti-tumor activity has been demonstrated
penetration of the BBB [3]: did penetrate the BBB
inhibition of CYP3A4/5 (CYP3A4/5): potent inhibitor
